System: 454973-116-R2-J3-PDC complex spheroid viability
Assay: Anticancer human tumor 454973-116-R2-J3-PDC patient-derived pancreatic carcinoma cell line growth inhibition [POLQ]
Settings: for IC50: curve of first compound; for viability, T/C: stronger effect = lower value
Method: Multicellular complex tumor spheroid response to Polymerase (POL) inhibitors (novobiocin, ART-558, RP6685) in combination with a variety of drugs and investigational agents in selected tumor cell lines
The POL inhibitors (novobiocin, ART-558, and RP6685) were evaluated both individually and in combination with standard of care and investigational anticancer small molecules within a complex spheroid model of solid tumors. . Complex spheroids include a stromal component modeled by human endothelial cells (HUVEC) and fibroblasts modeled by human mesenchymal stem cells (MSCs). The concentration ranges selected for each drug and investigational agent were based upon clinically achievable concentrations if the clinical Cmax of the agent was known.
Compounds. The drugs and investigational agents: novobiocin (NSC847541), ART-558 (NSC835418), RP-6685 (NSC848927), peposertib (NSC802822), ceralasertib (NSC780249), elimusertib (NSC800525), camonsertib (NSC841442), AZD-1390 (NSC803789), olaparib (NSC753686), talazoparib (NSC767125), rucaparib (NSC756644), sotorasib (NSC818433), MRTX-1133 (NSC836407), SN-38 (NSC673596), topotecan (NSC609699), epotoside (NSC141540), doxorubicin (NSC123127), gemcitabine (NSC613327), 5-fluorouracil (NSC19893), paclitaxel (NSC125973), vemurafenib (NSC761431), MSA-2 (NSC828583), SN-011 (NSC837082), adavosertib (NSC754352), prexasertib (NSC758257), carboplatin (NSC241240) and oxaliplatin (NSC266046), were obtained from the National Cancer Institute (NCI) Developmental Therapeutics Program Chemical Repository (21). The FDA-approved anticancer drug set is available from the Developmental Therapeutics Program at https://dtp.cancer.gov/organization/dscb/obtaining/. […] The stock solutions were prepared in dimethyl sulfoxide (DMSO, Sigma-Aldrich, St. Louis, MO, cat. D2650), except for the platinum compounds which were prepared in saline (Quality Biological, Gaithersburg, MD, cat. 114-055-101), at 800-fold the tested concentration and stored at -70 degrees C prior to their use. All drugs and investigational agents were tested over a range starting from a high concentration at or near the clinical Cmax and decreasing in half-log increments. If the clinical Cmax for an agent had not been determined, the highest concentration tested was 10 microM, except for SN-38, which was tested at a high concentration of 1 microM.
Cell Culture. All cells were maintained in an incubator at 37 degrees C and 5% CO2 with 95% humidity. The PDC lines were cultured according to standard operating procedures established by the NCI PDMR (https://pdmr.cancer.gov). Table 3 of the manuscript, lists the cell lines along with the number of the three cell types plated to form the mct-spheroids and media for tumor cell growth. After thawing, all PDC lines, except 997537-175-T-J1-PDC and 415267-285-R-J2-PDC, were cultured in Matrigel-coated flasks prepared with a working solution of 1X Ham's F-12 nutrient mix, without supplementation (Thermo Fisher Scientific, cat. 11765054), 100 U/mL penicillin-streptomycin (Thermo Fisher Scientific, cat. 15140122), and 2.5% Matrigel (Corning Inc., Corning, NY, cat. 354248) for the first three passages. The two PDC lines 997537-175-T-J1-PDC and 415267-285-R-J2-PDC were cultured on uncoated flasks. The 857933-349-R-J2-PDC line was cultured in 6C/Colon 1B media containing advanced DMEM/F-12 (Thermo Fisher Scientific, cat. 12634028), 10 mM HEPES (Thermo Fisher Scientific, cat. 15630080), 1X GlutaMAX supplement (Thermo Fisher Scientific, cat. 35050061), 0.1 mg/mL primocin (InvivoGen, San Diego, CA, cat. ant-pm-2), 10% defined fetal bovine serum, heat inactivated (HyClone Laboratories Inc., Logan, UT, cat. SH30070.03HI), 50% L-WRN conditioned media (ATCC, cat. CRL-3276), 1.25 mM N-Acetyl-L-cysteine (Sigma-Aldrich, cat. A9165), 10 mM nicotinamide (Sigma-Aldrich, cat. N0636), 1X B-27 supplement (Thermo Fisher Scientific, cat. 17504044), 1X N-2 supplement (Thermo Fisher Scientific, cat. […]

[1] = second compound 0.0316 µM, first compound 0.0316 µM
[2] = second compound 0.0316 µM, first compound 0.1 µM
[3] = second compound 0.0316 µM, first compound 0.316 µM
[4] = second compound 0.0316 µM, first compound 1 µM
[5] = second compound 0.0316 µM, first compound 3.16 µM
[6] = second compound 0.0316 µM, first compound 10 µM
[7] = second compound 0.1 µM, first compound 0.0316 µM
[8] = second compound 0.1 µM, first compound 0.1 µM
[9] = second compound 0.1 µM, first compound 0.316 µM
[10] = second compound 0.1 µM, first compound 1 µM
[11] = second compound 0.1 µM, first compound 3.16 µM
[12] = second compound 0.1 µM, first compound 10 µM
[13] = second compound 0.316 µM, first compound 0.0316 µM
[14] = second compound 0.316 µM, first compound 0.1 µM
[15] = second compound 0.316 µM, first compound 0.316 µM
[16] = second compound 0.316 µM, first compound 1 µM
[17] = second compound 0.316 µM, first compound 3.16 µM
[18] = second compound 0.316 µM, first compound 10 µM
[19] = second compound 1 µM, first compound 0.0316 µM
[20] = second compound 1 µM, first compound 0.1 µM
[21] = second compound 1 µM, first compound 0.316 µM
[22] = second compound 1 µM, first compound 1 µM
[23] = second compound 1 µM, first compound 3.16 µM
[24] = second compound 1 µM, first compound 10 µM
[25] = second compound 3.16 µM, first compound 0.0316 µM
[26] = second compound 3.16 µM, first compound 0.1 µM
[27] = second compound 3.16 µM, first compound 0.316 µM
[28] = second compound 3.16 µM, first compound 1 µM
[29] = second compound 3.16 µM, first compound 3.16 µM
[30] = second compound 3.16 µM, first compound 10 µM
[31] = second compound 10 µM, first compound 0.0316 µM
[32] = second compound 10 µM, first compound 0.1 µM
[33] = second compound 10 µM, first compound 0.316 µM
[34] = second compound 10 µM, first compound 1 µM
[35] = second compound 10 µM, first compound 3.16 µM
[36] = second compound 10 µM, first compound 10 µM
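Further: spheroids exposed to drugs for seven days before measurement.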
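Wherever viability, T/C is given: percent viability relative to DMSO vehicle control wells taken as 100%.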

C=CC(=O)N1CCN(c2nc(=O)n(-c3c(C)ccnc3C(C)C)c3nc(-c4c(O)cccc4F)c(F)cc23)C(C)C1 (stereo unspecified) + Nc1ccc(C#CCN(C(=O)Cc2ncc(C(F)(F)F)cc2C(F)(F)F)c2ccc(F)cc2)nn1
IC50 (second compound 0.0316 µM): > 10 µM | IC50 (second compound 0.1 µM): > 10 µM | IC50 (second compound 0.316 µM): > 10 µM | IC50 (second compound 1 µM): > 10 µM | IC50 (second compound 3.16 µM): > 10 µM | IC50 (second compound 10 µM): > 10 µM | viability, T/C [1]: 103% | viability, T/C [2]: 106% | viability, T/C [3]: 110% | viability, T/C [4]: 111% | viability, T/C [5]: 113% | viability, T/C [6]: 113% | viability, T/C [7]: 103% | viability, T/C [8]: 97.1% | viability, T/C [9]: 110% | viability, T/C [10]: 114% | viability, T/C [11]: 111% | viability, T/C [12]: 117% | viability, T/C [13]: 102% | viability, T/C [14]: 106% | viability, T/C [15]: 107% | viability, T/C [16]: 106% | viability, T/C [17]: 124% | viability, T/C [18]: 116% | viability, T/C [19]: 102% | viability, T/C [20]: 110% | viability, T/C [21]: 109% | viability, T/C [22]: 123% | viability, T/C [23]: 121% | viability, T/C [24]: 114% | viability, T/C [25]: 111% | viability, T/C [26]: 118% | viability, T/C [27]: 120% | viability, T/C [28]: 123% | viability, T/C [29]: 125% | viability, T/C [30]: 114% | viability, T/C [31]: 118% | viability, T/C [32]: 113% | viability, T/C [33]: 116% | viability, T/C [34]: 123% | viability, T/C [35]: 137% | viability, T/C [36]: 116%

COc1cccc(OCCCN)c1-c1cc(Nc2cnc(C#N)cn2)n[nH]1 + Nc1ccc(C#CCN(C(=O)Cc2ncc(C(F)(F)F)cc2C(F)(F)F)c2ccc(F)cc2)nn1
IC50 (second compound 0.0316 µM): 0.0156 µM | IC50 (second compound 0.1 µM): 0.0136 µM | IC50 (second compound 0.316 µM): 0.0143 µM | IC50 (second compound 1 µM): 0.0139 µM | IC50 (second compound 3.16 µM): 0.0137 µM | IC50 (second compound 10 µM): 0.0116 µM | viability, T/C (second compound 0.0316 µM, first compound 0.00316 µM): 100% | viability, T/C (second compound 0.0316 µM, first compound 0.01 µM): 76.6% | viability, T/C [1]: 7.44% | viability, T/C [2]: 5.67% | viability, T/C [3]: 5.56% | viability, T/C [4]: 4.28% | viability, T/C (second compound 0.1 µM, first compound 0.00316 µM): 101% | viability, T/C (second compound 0.1 µM, first compound 0.01 µM): 63.5% | viability, T/C [7]: 12.7% | viability, T/C [8]: 6.65% | viability, T/C [9]: 5.32% | viability, T/C [10]: 4.22% | viability, T/C (second compound 0.316 µM, first compound 0.00316 µM): 110% | viability, T/C (second compound 0.316 µM, first compound 0.01 µM): 67.2% | viability, T/C [13]: 11.2% | viability, T/C [14]: 7.21% | viability, T/C [15]: 5.08% | viability, T/C [16]: 4.5% | viability, T/C (second compound 1 µM, first compound 0.00316 µM): 99.7% | viability, T/C (second compound 1 µM, first compound 0.01 µM): 67.3% | viability, T/C [19]: 6.4% | viability, T/C [20]: 5.68% | viability, T/C [21]: 5.11% | viability, T/C [22]: 3.75% | viability, T/C (second compound 3.16 µM, first compound 0.00316 µM): 101% | viability, T/C (second compound 3.16 µM, first compound 0.01 µM): 66.7% | viability, T/C [25]: 5.97% | viability, T/C [26]: 5.07% | viability, T/C [27]: 5.91% | viability, T/C [28]: 4.97% | viability, T/C (second compound 10 µM, first compound 0.00316 µM): 113% | viability, T/C (second compound 10 µM, first compound 0.01 µM): 56.4% | viability, T/C [31]: 5.54% | viability, T/C [32]: 5.59% | viability, T/C [33]: 5.26% | viability, T/C [34]: 4.7%

O=C(c1cc(Cc2n[nH]c(=O)c3ccccc23)ccc1F)N1CCN(C(=O)C2CC2)CC1 + Nc1ccc(C#CCN(C(=O)Cc2ncc(C(F)(F)F)cc2C(F)(F)F)c2ccc(F)cc2)nn1
IC50 (second compound 0.0316 µM): > 10 µM | IC50 (second compound 0.1 µM): > 10 µM | IC50 (second compound 0.316 µM): 9.69 µM | IC50 (second compound 1 µM): > 10 µM | IC50 (second compound 3.16 µM): > 10 µM | IC50 (second compound 10 µM): > 10 µM | viability, T/C [1]: 101% | viability, T/C [2]: 101% | viability, T/C [3]: 90.8% | viability, T/C [4]: 91% | viability, T/C [5]: 95.1% | viability, T/C [6]: 58.9% | viability, T/C [7]: 101% | viability, T/C [8]: 101% | viability, T/C [9]: 102% | viability, T/C [10]: 102% | viability, T/C [11]: 83.5% | viability, T/C [12]: 62.2% | viability, T/C [13]: 102% | viability, T/C [14]: 105% | viability, T/C [15]: 103% | viability, T/C [16]: 98.2% | viability, T/C [17]: 90.5% | viability, T/C [18]: 48.2% | viability, T/C [19]: 104% | viability, T/C [20]: 105% | viability, T/C [21]: 114% | viability, T/C [22]: 102% | viability, T/C [23]: 97.4% | viability, T/C [24]: 54.6% | viability, T/C [25]: 111% | viability, T/C [26]: 112% | viability, T/C [27]: 102% | viability, T/C [28]: 99.9% | viability, T/C [29]: 101% | viability, T/C [30]: 59.7% | viability, T/C [31]: 117% | viability, T/C [32]: 113% | viability, T/C [33]: 113% | viability, T/C [34]: 112% | viability, T/C [35]: 101% | viability, T/C [36]: 57.2%
